Data from ChEMBL document CHEMBL5143547, “Antimycobacterial and anti-inflammatory activities of thiourea derivatives focusing on treatment approaches for severe pulmonary tuberculosis” (Bioorg Med Chem, 2022).
Activity calls are given as the source filed them. The calls are words filed in the database; no cut-off is given here.

Assays:
RAW264.7 [1] = assay: Anti-inflammatory activity against LPS-stimulated mouse RAW264.7 cells assessed as reduction in IL1beta protein expression level after 24 hrs by ELISA; type: functional, cell-based; conditions: RAW264.7, 24 h
RAW264.7 [2] = assay: Anti-inflammatory activity against LPS-stimulated mouse RAW264.7 cells assessed as reduction in TNFalpha protein expression level at 12.5 uM after 24 hrs by ELISA; type: functional, cell-based
RAW264.7 [3] = assay: Inhibition of NO production in mouse RAW264.7 cells incubated for 24 hrs by Griess reagent based analysis; type: functional, cell-based; conditions: RAW264.7, 24 h
RAW264.7 [4] = assay: Anti-inflammatory activity against LPS-stimulated mouse RAW264.7 cells assessed as reduction in iNOS protein expression level at 100 uM after 24 hrs by immunoblot analysis relative to control; type: functional
[5] = test system: Mycobacterium tuberculosis; assay: Antitubercular activity against Mycobacterium tuberculosis H37Rv assessed as reduction in microbial growth after 5 days by MTT assay; type: functional; conditions: 120 h, time 5 day
[6] = Cytotoxicity against LPS-stimulated mouse RAW264.7 cells after 24 hrs by MTT assay; type: toxicity, cell-based; conditions: LPS-stimulated RAW264.7 cells
[7] = test system: Mycobacterium tuberculosis; assay: Antitubercular activity against Mycobacterium tuberculosis M299 infected in mouse RAW264.7 cells assessed as reduction in intracellular microbial growth after 4 days followed by cell lysis and measured after 21 days; type: functional; conditions: M299, 96 h, time 4 day
[8] = test system: Mycobacterium tuberculosis; assay: Antitubercular activity against Mycobacterium tuberculosis H37Rv infected in mouse RAW264.7 cells assessed as reduction in microbial growth after 4 days followed by cell lysis and measured after 21 days; type: functional; conditions: 96 h, time 4 day
[9] = Selectivity index, ratio of CC50 for cytotoxicity against LPS-stimulated mouse RAW264.7 cells to MIC50 for antitubercular activity against Mycobacterium tuberculosis H37Rv; type: toxicity, cell-based; conditions: LPS-stimulated RAW264.7 cells, read-out: Selectivity Index
[10] = Selectivity index, ratio of CC50 for cytotoxicity against LPS-stimulated mouse RAW264.7 cells to MIC50 for antitubercular activity against Mycobacterium tuberculosis M299; type: toxicity, cell-based; conditions: LPS-stimulated RAW264.7 cells, read-out: Selectivity Index
RAW264.7 [11] = assay: Anti-inflammatory activity against LPS-stimulated mouse RAW264.7 cells assessed as reduction in TNFalpha protein expression level after 24 hrs by ELISA; type: functional, cell-based; conditions: RAW264.7, 24 h
[12] = test system: Mycobacterium tuberculosis; assay: Antitubercular activity against Mycobacterium tuberculosis M299 assessed as reduction in microbial growth after 5 days by MTT assay; type: functional, organism-based; conditions: M299, 120 h
RAW264.7 [13] = assay: Anti-inflammatory activity against LPS-stimulated mouse RAW264.7 cells assessed as reduction in iNOS protein expression level at 50 uM after 24 hrs by immunoblot analysis; type: functional, cell-based

Row | Structure (SMILES) | IC50 (RAW264.7 [1]) [µM] | inhibition (RAW264.7 [2]) | IC50 (RAW264.7 [3]) [µM] | inhibition at 100 µM (RAW264.7 [4]) [%] | MIC50 [5] [µM] | CC50 at 24 h [6] [µM] | MIC50 [7] [µM] | MIC50 [8] [µM] | selectivity ratio [9] | selectivity ratio [10] | IC50 (RAW264.7 [11]) [µM] | IC50 [12] [µM] | inhibition (RAW264.7 [13])
1 | O=C(NNC(=S)NCc1ccccc1)c1ccncc1 | ≥ 200 | Active | 7.4 | ≤ 100 | 1.3 | 93.2 | 32 | 3.7 | 71.7 | 13.5 | 18.7 | 6.9 | –
2 | CO[C@H]1/C=C/O[C@@]2(C)Oc3c(C)c(O)c4c(O)c(c(/C=N/N5CCN(C)CC5)c(O)c4c3C2=O)NC(=O)/C(C)=C\C=C\[C@H](C)[C@H](O)[C@@H](C)[C@@H](O)[C@@H](C)[C@H](OC(C)=O)[C@@H]1C [RIFAMPIN] | – | – | – | – | 0.2 | – | – | – | – | – | – | 1.2 | –
3 | S=C(Nc1ccccc1)N1CCN(c2ncccn2)CC1 | – | – | ≥ 200 | – | 127 | ≥ 200 | – | – | > 1.6 | – | – | – | –
4 | S=C(NCc1ccccc1)Nc1ccc2c(c1)OCCO2 | 33.2 | Active | 13.7 | ≤ 100 | 2 | ≥ 200 | 19.4 | 4.8 | > 100 | ≥ 17.7 | 20.7 | 11.3 | –
5 | S=C(Nc1ccccc1)Nc1ccc(Br)cc1 | – | – | 1.9 | – | 28.9 | 27.1 | – | – | 0.9 | – | – | – | –
6 | S=C(NCc1ccccc1)N1CCN(Cc2ccc3c(c2)OCO3)CC1 | – | – | 110 | – | 8.5 | 136 | – | – | 15.9 | – | – | – | –
7 | CCCCNC(=S)NCc1ccccc1 | – | – | 143 | – | 160 | 177 | – | – | 1.1 | – | – | – | –
8 | CC(C)c1ccc(NC(=S)NCc2ccccc2)cc1 | 55.7 | Active | 2.4 | ≤ 100 | 2.3 | 121 | 5.6 | 1.7 | 52.5 | 15.5 | 4 | 7.8 | Active
9 | COc1ccc(CN2CCN(C(=S)Nc3ccccc3)CC2)c(OC)c1OC | – | – | ≥ 200 | – | 16 | 34.9 | – | – | 2.2 | – | – | – | –
10 | COc1cc(NC(=S)Nc2ccccc2)cc(OC)c1OC | – | – | 15.2 | – | 28.9 | 154 | – | – | 5.3 | – | – | – | –
11 | CC(C)Cc1ccc(C(C)C(=O)O)cc1 (stereo unspecified) [IBUPROFEN] | 14.4 | Active | – | – | – | – | – | – | – | – | 2.1 | – | –
12 | CCN(CC)C(=S)NCc1ccccc1 | – | – | 15.7 | – | 40.2 | ≥ 200 | – | – | > 4.9 | – | – | – | –
13 | S=C(NCc1ccccc1)N1CCN(c2ncccn2)CC1 | – | – | ≥ 200 | – | 17.8 | 50.9 | – | – | 2.9 | – | – | – | –
14 | Oc1ccc(N2CCN(C(=S)Nc3ccccc3)CC2)cc1 | – | – | 155 | – | 155 | 186 | – | – | 1.2 | – | – | – | –
15 | S=C(NCCc1ccccc1)N1CCN(c2ncccn2)CC1 | – | – | ≥ 200 | – | 34.9 | 40.6 | – | – | 1.2 | – | – | – | –
16 | N#CNC(=S)NCCc1ccccc1 | – | – | 10.1 | – | 33.3 | 65.9 | – | – | 1.9 | – | – | – | –
17 | OCCN(CCO)C(=S)Nc1ccccc1 | – | – | 50.7 | – | ≥ 200 | ≥ 200 | – | – | > 1 | – | – | – | –
18 | O=C(O)c1ccc(NC(=S)NCc2ccccc2)cc1O | 47.9 | Active | 8.1 | ≤ 100 | 5.9 | 197 | 24.7 | 10.9 | 33.3 | 8 | 28.4 | 24.7 | –
19 | O=C(C1CCCO1)N1CCN(C(=S)NCc2ccccc2)CC1 (stereo unspecified) | – | – | ≥ 200 | – | 24.9 | ≥ 200 | – | – | > 8 | – | – | – | –
20 | CCCCN1CCN(C(=S)NCc2ccccc2)CC1 | – | – | ≥ 200 | – | 157 | ≥ 200 | – | – | > 1.3 | – | – | – | –
21 | Oc1cccc(NC(=S)NCc2ccccc2)c1 | – | – | 200 | – | 77.2 | ≥ 200 | – | – | > 2.6 | – | – | – | –
22 | S=C(NCCc1ccccc1)N1CCOCC1 | – | – | ≥ 200 | – | ≥ 200 | ≥ 200 | – | – | > 1 | – | – | – | –
23 | S=C(NCCc1ccccc1)N1CCN(c2ccccn2)CC1 | – | – | ≥ 200 | – | 12.6 | 40.6 | – | – | 3.2 | – | – | – | –
24 | CCCCN1CCN(C(=S)Nc2ccccc2)CC1 | – | – | ≥ 200 | – | 31.5 | ≥ 200 | – | – | > 6.4 | – | – | – | –
25 | OCCNC(=S)Nc1ccccc1 | – | – | ≥ 200 | – | 53.3 | 105 | – | – | 1.9 | – | – | – | –
26 | COc1cc(NC(=S)NCCc2ccccc2)cc(OC)c1OC | 80.2 | Active | 4.1 | ≤ 100 | 8.6 | ≥ 200 | 12.9 | 7.7 | > 25 | ≥ 8.1 | 15.3 | 24.8 | –
27 | S=C(Nc1ccccc1)N1CCN(c2ccccc2Cl)CC1 | – | – | ≥ 200 | – | 37.3 | 30.5 | – | – | 0.8 | – | – | – | –
